{"source": "patent US7666835B2", "about": "(Imperial Innovations Limited, priority 2001, dated 2010)", "key": {"GLP-1 receptor [1]": {"biological_target": "T1, GLP-1 receptor (Rattus norvegicus, UniProt P32301)", "T1 construct": "from tissue; host or cells: rat hypothalamus (membrane preparation)", "T1 sequence (P32301 22-463)": "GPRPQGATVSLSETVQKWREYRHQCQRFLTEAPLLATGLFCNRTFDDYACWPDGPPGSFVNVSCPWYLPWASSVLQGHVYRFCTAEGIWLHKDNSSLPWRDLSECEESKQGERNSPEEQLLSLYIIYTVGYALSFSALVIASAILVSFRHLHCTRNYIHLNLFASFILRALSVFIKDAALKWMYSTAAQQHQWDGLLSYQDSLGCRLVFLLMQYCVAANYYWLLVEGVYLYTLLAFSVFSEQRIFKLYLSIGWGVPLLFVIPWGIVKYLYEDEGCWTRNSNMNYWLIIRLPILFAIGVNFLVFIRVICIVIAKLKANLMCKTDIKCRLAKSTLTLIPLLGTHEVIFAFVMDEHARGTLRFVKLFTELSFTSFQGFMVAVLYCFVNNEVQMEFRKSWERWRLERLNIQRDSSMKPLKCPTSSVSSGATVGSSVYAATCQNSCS", "assay": "iPVN coinjection of exendin-(9-39) with GLP-1 or OXM, food intake (study 4b)", "type": "in vivo", "description": "(§1) Animals had permanent stainless steel guide cannulas (Plastics One, Roanoke, Va.) stereotactically implanted ICV or iPVN. All studies were carried out in the early light phase, between 0900-1100 h, after a 24-h fast, and food intake was measured 1, 2, 4, 8, and 24 h postinjection."}, "GLP-1 receptor [2]": {"biological_target": "T1, GLP-1 receptor", "assay": "ICV coadministration of exendin-(9-39) with GLP-1 or OXM, food intake (study 4a)", "type": "in vivo", "conditions": "1 h food intake", "description": "as §1"}, "[3]": {"biological_target": "T2, arcuate nucleus GLP-1 receptors (Rattus norvegicus, UniProt P32301)", "T2 construct": "24-hour fasted rats received an iARC injection of saline or exendin9-39 (5 nmoles); from tissue; host or cells: living rat, hypothalamic arcuate nucleus", "T2 sequence (P32301 22-463)": "T1 sequence (P32301 22-463)", "assay": "iARC exendin 9-39 prior to IP OXM or GLP-1, 1 hour food intake", "type": "in vivo", "from_the_text": "Rats cannulated into the arcuate nucleus were randomised into 6 groups (n=10-12 per group). […] The injection details are described in Table 1 below."}, "[4]": {"tested_on": "fos-like immunoreactivity", "assay": "fos-like immunoreactivity (FLI) in hypothalamus and brainstem after IP injection", "type": "in vivo, rat", "conditions": "IP OXM 50 nmol/kg or CCK 15 nmol/kg; 90 minutes after injection", "excerpt": "The brains were removed and post-fixed overnight in PBF and then transferred to PB-sucrose (20% w/v) overnight. 40 μm coronal sections of brain and brainstem were cut on a freezing microtome and stained for fos-like immunoreactivity (FLI) by the avitin-biotin-peroxidase method. The sections were then mounted on poly-L-lysine-coated slides, dehydrated in increasing concentrations of ethanol (50-100%), delipidated in xylene and coverslipped using DPX mountant. Slides were examined for FLI-positive nuclei using a light microscope (Nikon Eclipse E-800) and images captured using a microimager (Xillix MicroImager). The numbers of FLI-positive nuclei in the hypothalamus and brainstem were counted by an independent member of the research team who was blinded to the experimental groups. The average number of FLI-positive nuclei per section was calculated and expressed as an integer for each animal."}, "[5]": {"assay": "ICV injection, food intake in 24-h fasted rats (studies 1a, 2a)", "type": "in vivo, rat", "conditions": "study 1a, 3 nmol ICV; for refeeding (food intake) after ICV injection: 24-h fasted rats, vs saline", "from_the_text": "(§2) Animals had permanent stainless steel guide cannulas (Plastics One, Roanoke, Va.) stereotactically implanted ICV or iPVN."}, "[6]": {"assay": "ICV injection in sated rats at onset of dark phase: food intake and behaviour (study 3)", "type": "in vivo, rat", "conditions": "study 3a, 3 nmol ICV, early dark phase, vs saline", "quoted_text": "Food intake was measured 1 h postinjection (study 3a), and behaviour was assessed (study 3b)."}, "[7]": {"assay": "iPVN injection, food intake in 24-h fasted rats (studies 1b, 2b)", "type": "in vivo, rat", "conditions": "for refeeding (food intake) after iPVN injection: study 1b, OXM, GLP-1 (3 nmol [sic]), exendin-4 0.03 nmol, glicentin, glucagon 1 nmol, SP-1 3 nmol, fasted rats", "description": "as §2\nTherefore, exendin-4 was injected iPVN at a dose of 0.03 nmol."}}, "note": "No end group written: not given here.", "data": [{"compound": "exendin-(9-39)", "values": [{"measurement": "effect of coinjected exendin-(9-39) on anorectic effect of GLP-1", "setting": "GLP-1 receptor [1]; exendin-(9-39) 10 nmol with GLP-1 1 nmol", "value": "blocked"}, {"measurement": "effect of coinjected exendin-(9-39) on anorectic effect of OXM", "setting": "GLP-1 receptor [1]; exendin-(9-39) 10 nmol with OXM 1 nmol", "value": "blocked"}, {"measurement": "effect of coadministered exendin-(9-39) on anorectic effect of GLP-1", "setting": "GLP-1 receptor [2]; exendin-(9-39) 30 nmol with GLP-1 3 nmol (10:1)", "value": "blocked the anorectic effects of GLP-1"}, {"measurement": "effect of coadministered exendin-(9-39) on anorectic effect of OXM", "setting": "GLP-1 receptor [2]; exendin-(9-39) 30 nmol with OXM 3 nmol", "value": "attenuation of the anorectic effect of OXM"}, {"measurement": "Food intake", "setting": "[3]; 1 hour, iARC injection / IP injection 15 minutes later, exendin 9-39 5 nmoles, OXM or GLP-1 30 nmol/kg, Saline/saline 9.2", "value": 9.0, "unit": "g"}, {"measurement": "effect of prior iARC exendin 9-39 on inhibition of food intake by IP GLP-1", "setting": "[3]; GLP-1 30 nmol/kg IP", "value": "not affected"}, {"measurement": "effect of prior iARC exendin 9-39 on anorexia caused by IP OXM", "setting": "[3]; exendin 9-39 (300 nmol/kg as printed) into the ARC, OXM 30 nmol/kg IP", "value": "blocked"}]}, {"compound": "CCK-8 (DYMGWMDF; ends and bridges not checked; UniProt P06307 96-103, looked up) [positive control for gastric emptying and brainstem FLI]", "values": [{"measurement": "FLI / c-fos expression in the brainstem (NTS, area postrema)", "setting": "[4]", "value": "dense staining of FLI"}]}, {"compound": "CC[C@H](C)[C@H](NC(=O)[C@H](Cc1ccccc1)NC(=O)[C@H](CCC(=O)O)NC(=O)[C@H](CCCCN)NC(=O)[C@H](C)NC(=O)[C@H](C)NC(=O)[C@H](CCC(N)=O)NC(=O)CNC(=O)[C@H](CCC(=O)O)NC(=O)[C@H](CC(C)C)NC(=O)[C@H](Cc1ccc(O)cc1)NC(=O)[C@H](CO)NC(=O)[C@H](CO)NC(=O)[C@@H](NC(=O)[C@H](CC(=O)O)NC(=O)[C@H](CO)NC(=O)[C@@H](NC(=O)[C@H](Cc1ccccc1)NC(=O)[C@@H](NC(=O)CNC(=O)[C@H](CCC(=O)O)NC(=O)[C@H](C)NC(=O)[C@@H](N)Cc1c[nH]cn1)[C@@H](C)O)[C@@H](C)O)C(C)C)C(=O)N[C@@H](C)C(=O)N[C@@H](Cc1c[nH]c2ccccc12)C(=O)N[C@@H](CC(C)C)C(=O)N[C@H](C(=O)N[C@@H](CCCCN)C(=O)NCC(=O)N[C@@H](CCCNC(=N)N)C(N)=O)C(C)C", "note": "[GLP-1, glucagon-like peptide-1]", "values": [{"measurement": "refeeding (food intake) after ICV injection", "setting": "[5]", "value": "significantly reduced refeeding"}, {"measurement": "duration of inhibition of food intake postinjection", "setting": "[5]; fasted rats", "value": 4, "unit": "h"}, {"measurement": "food intake 1 h postinjection", "setting": "[6]", "value": "significantly reduced food intake"}, {"measurement": "refeeding (food intake) after iPVN injection", "setting": "[7]", "value": "inhibited refeeding"}, {"measurement": "food intake after iPVN injection", "setting": "[7]; study 2b, 1 nmol iPVN, until 8 h postinjection", "value": "significantly reduced"}]}, {"compound": "glucagon", "values": [{"measurement": "refeeding (food intake) after ICV injection", "setting": "[5]", "value": "failed to affect food intake at any time point"}, {"measurement": "refeeding (food intake) after iPVN injection", "setting": "[7]", "value": "failed to affect food intake at any time point"}]}, {"compound": "exendin-4", "values": [{"measurement": "refeeding (food intake) after iPVN injection", "setting": "[7]", "value": "inhibited refeeding"}]}]}
